According to US11202871B2, “Devices for evaporation and inhalation of active agents” (Emplicure AB, priority 2016, dated 2021):
Where a name gives a salt, the structure may show the parent alone. Read-outs that look alike come from different tables or passages of the source. Values belong to the compound of their own block, whether it stands above or below them.

Columns and labels:
[1] = Source text: (§1) Calcium sulphate alpha hemihydrate (CaS) was obtained from Bo Ehrlander AB (Sweden). Clonidine hydrochloride was obtained from PCAS (Finland). Shaped silicon rubbers were used as molds for coins (diameter: 12 mm, thickness: 2 mm). The calcium sulphate was mixed with powder of Clonidine hydrochloride (0.07 g Clonidine hydrochloride/g calcium sulphate) and deionised water (Liquid/Powder ratio of 0.4 (w/w)) to form a homogenous paste, which was used to fill the rubber molds. Once the paste had been applied, the molds were set to dry for at least 12 h under ambient conditions.
The oven temperature was set to approximately 250° C.
(§2) Each coin was weighed and immersed into a beaker containing 200 ml of deionised water. […] The sample was characterized by Shimadzu LC-2030 (Germany) HPLC system with a Genesis C18 analytical column 4 μm (100×2.1 mm i.d.) with a mobile phase of acetonitrile/phosphoric acid, pH 3 (11/89). The wavelength was set to 220 nm.
The reference samples represent the amount of clonidine hydrochloride mg/g calcium sulphate that was loaded before heat treatment.

[2] = calcium sulphate coins, solution 50 μl, 5 mg/ml dispensed; oven approx. 250° C., 0 to 15 minutes
Protocol: as §1, with “with” for “with powder of Clonidine hydrochloride (0.07 g Clonidine hydrochloride/g calcium sulphate) and”, “When” for “Once”, “was” for “had been”
Clonidine hydrochloride solution (50 μl, 5 mg/ml) was dispensed onto the calcium sulphate coins. When the solution was applied, the coins were set to dry for at least 12 h under ambient conditions.
The temperature was set to approximately 250° C.
as §2
The reference samples represent the amount of clonidine hydrochloride that was loaded before heat treatment.

[3] = Oven heating of aluminium oxide ceramic discs loaded with ibuprofen; amount remaining by UV; assay type: physicochemical; conditions: Al2O3 discs, oven 250° C. for 15 minutes
Protocol: Ceramic discs comprising ibuprofen (IOL Chemicals and Pharmaceuticals Ltd, India) were prepared using aluminium oxide (Al2O3; Keranova, Sweden) as follows.
(§3) Ceramic discs (Al2O3) with different pore sizes (0.25, 1, 6, 15 and 30 μm) were prepared in two sizes: (i) 63 mm in diameter and 6.3 mm in thickness (pore sizes 0.25, 1 and 6 μm); and (ii) 48 mm in diameter and 6.3 mm in thickness (pore sizes 15 and 30 μm). The porosity was approximately 40% vol and the density 3.75 g/cm^3 for all discs according to product specification.
The discs (pore sizes 0.25, 1, 6, 15 and 30 μm) were soaked in a 400 ml in phosphate buffer with pH 7.4 (one phosphate buffer saline tablet (Sigma-Aldrich, USA) dissolved in 200 ml deionized water) with a concentration of 408.5 μg/ml ibuprofen for 24 hours. The discs were dried in room temperature for 24 hours. […] All discs were measured for concentration of ibuprofen in 400 ml phosphate buffer pH 7.4 at 37° C. (USP paddle method (paddle speed 50 rpm), VanKel 7025, Varian Inc, USA) and the concentration for ibuprofen was measured using a UV spectrophotometer Shimadzu 1800, Japan at a wavelength of 220 nm to determine the amount of ibuprofen in the ceramic discs. The amount of ibuprofen in control discs was measured after 15 hours (i.e. after maximum drug release) and in heat treated discs after 1.5 hours (i.e. the maximal amount drug was at this time point released).

[4] = for amount of nicotine detected in the reference sample (not heated) / nicotine detected in coins after heating versus reference: pure nicotine (20 mg) dispensed; for amount of nicotine detected in the reference sample (not heated): dried 24 hours
[5] = calcium sulphate rods soaked 24 hours in pure nicotine; heated 5*10 sec.; max 315° C., 6 W
Source text: Aluminium oxide ceramic rods and calcium sulphate rods were obtained as described in Example 3. Nicotine and nicotine solutions were supplied and applied, and nicotine levels were detected as described in Example 3.
Samples were heated using a prototype e-cigarette device (X-Cube II, Smoke) obtained from Devex Mekatronik AB (Sweden). The device is derived from the commercially available e-cigarette X-Cube.
The sample in the device was heated up by a coil that is wrapped around the sample.
The end of the device was connected to a vial via a silicon hose. The vial contained 1 ml of deionised water. To simulate smoking a rod was put into the device and puffing was performed. Puffing involves a sequence of 5 puffs that are each 10 seconds long. After puffing, the hose was removed and flushed with the water. The water was analysed for concentration of nicotine.

[6] = calcium sulphate coins, nicotine solution 50 μl, 18 mg/ml dispensed
Source text: Calcium sulphate coins were obtained as described in Example 3. For the indirect induction test a magnet was molded into the coin. Nicotine and nicotine solutions were supplied and applied, and nicotine levels were detected as described in Example 3.
Metal plate for induction cooker was obtained from Haneström (Sweden). Induction cooker Wilfa ICP-2000 was obtained from Media Markt (Sweden). Magnets (10*1 mm, Samarium Cobalt magnets, 0.4 kg pull) were obtained from first4magnets (UK). IR-thermometer (MS6520A) was obtained from Mastech (USA).
Heat treatment by indirect induction was carried out by placing a metal plate onto the induction cooker. The ceramic coins containing a magnet was applied onto the metal plate and heated on maximum effect (exact temperature was not measured; see FIG. 10).

[7] = Liquid/Powder 0.4 (w/w)
Protocol: Calcium sulphate alpha hemihydrate (CaS) was obtained from Bo Ehrlander AB (Sweden). Shaped silicon rubbers were used as molds for coins (diameter: 12 mm, thickness: 2 mm). The calcium sulphate was mixed with a nicotine solution with a concentration of 5 or 20 mg/ml of nicotine (Liquid/Powder ratio of 0.4 (w/w)) to form a homogenous paste, which was filled in the rubber molds. Once the paste was applied, the molds were set to dry for at least 12 h under ambient conditions.
The temperature was set to approximately 200° C.
The sample was characterized by UV-spectrophotometer at a wavelength of 219 nm. The amount nicotine in the samples were then calculated.

[8] = Al2O3 discs, oven 188° C. for 15 minutes
Protocol: as §3
The discs were dried in room temperature for 24 hours. The discs were heated in an oven at 188° C. for 15 minutes, the control discs were not heated.

[9] = Oven heating of Al2O3 rods soaked in sumatriptan succinate solution; assay type: physicochemical
Source text: Aluminium oxide ceramic rods were obtained from […] (Sweden): […] Oven […] 218 was obtained from Wilfa, (Norway).

[10] = Oven heating of calcium sulphate coins pre-loaded with sumatriptan succinate; assay type: physicochemical; conditions: pre-loaded calcium sulphate coins (0.07 g/g calcium sulphate); oven approx. 250° C.
[11] = calcium sulphate rods soaked in pure nicotine, oven approx. 200° C.

amount of clonidine hydrochloride contained in a coin ([1]; calcium sulphate coins, 0.07 g clonidine hydrochloride/g calcium sulphate, coin approx. 0.3 g): approximately 17 mg
time within which almost all of the clonidine hydrochloride was released when heated ([1]; pre-loaded calcium sulphate coins, oven approx. 250° C.): ≤ 15 min
amount of clonidine hydrochloride present in the coins during heating [2]: decreased significantly over time
SMILES: Clc1cccc(Cl)c1N=C1NCCN1 [clonidine hydrochloride]

amount of ibuprofen remaining after heat treatment ([3]; pore sizes 0.25, 1, 6, 15 and 30 μm, all samples): zero
degradation of ibuprofen on heating (changes in absorbance at other wavelengths) [3]: no significant degradation
SMILES: CC(C)Cc1ccc(C(C)C(=O)O)cc1 (stereo not drawn) [ibuprofen]

SMILES: CN1CCCC1c1cccnc1 (stereo not drawn) [nicotine]
time within which almost all of the nicotine was released when heated ([4]; aluminium oxide rods soaked in 6 mg/ml nicotine solution (diluted e-juice) 24 hours, oven approx. 200° C.): 5 to 10 min
amount of nicotine the rods were able to absorb ([4]; aluminium oxide rods soaked in 6 mg/ml nicotine solution for 24 hours): approximately 135 μg nicotine/rod
amount of nicotine detected in the reference sample (not heated) ([4]; calcium sulphate coins): lower than 20 mg
nicotine detected in coins after heating versus reference ([4]; calcium sulphate coins, oven approx. 200° C.): a lower release of nicotine was detected after heating
amount of nicotine the rods were able to absorb ([4]; calcium sulphate rods soaked in pure nicotine for 24 hours): approximately 20 mg nicotine/rod
nicotine release during heating [4, 11]: Most of the nicotine was released during heating
nicotine release, 5 min versus 1 min of heating [4, 11]: a higher amount was released during 5 min of heating compared to 1 min of heating
amount of nicotine detected in the reference sample (not heated) ([4]; geopolymer coins): about 16 mg
nicotine detected in coins after heating versus reference ([4]; geopolymer coins, oven approx. 200° C.): a lower release of nicotine was detected after heating
nicotine release on heat treatment in e-cigarette device [5]: a heat treatment in the device will result in a nicotine release
nicotine release on induction heating, unheated plate ([6]; heated about 1 or about 5 minutes): Most of the nicotine was released within the first minute
nicotine release on induction heating, pre-heated plate ([6]; plate at least 150° C., heated 5 seconds): a substantial quantity of nicotine was released
amount of nicotine contained in the coins ([7]; calcium sulphate coins mixed with 5 mg/ml nicotine solution): approximately 180 μg
amount of nicotine contained in the coins ([7]; calcium sulphate coins mixed with 20 mg/ml nicotine solution): ~390 µg
amount of nicotine remaining after heat treatment compared to pre-heat treatment control ([8]; pore sizes 0.25, 6, 15 and 30 μm, all samples): very significantly reduced
degradation of nicotine on heating (changes in absorbance at other wavelengths) [8]: no significant degradation

SMILES: CNS(=O)(=O)Cc1ccc2[nH]cc(CCN(C)C)c2c1 [sumatriptan succinate]
amount of sumatriptan succinate the rods were able to absorb ([9]; Al2O3 rods soaked in 20 mg/ml solution for 24 hours): approximately 1 mg sumatriptan succinate/rod
time within which almost all of the sumatriptan succinate was released when heated ([9]; Al2O3 rods soaked in 20 mg/ml solution, oven approx. 300° C.): 5 to 15 min
time within which almost all of the sumatriptan succinate was released when heated [10]: ≤ 15 min
